Source: paper PMC11374718, “Unlocking opioid neuropeptide dynamics with genetically encoded biosensors” (Nature Neuroscience, 2024)
Like-named read-outs stand apart in the source and are kept apart here. Where no end group is shown, it is not given here.

Assays:
µLight [1] = biological target: µLight (Homo sapiens, UniProt P35372, V175Q); assay: biochemical; assay type: binding
µLight [2] = biological target: µLight (Homo sapiens, UniProt P35372, INS270[…]/V175Q); assay type: cell-based; settings: for EC50: read-out: μLight EC50
κLight1.3 [3] = biological target: T1, κLight1.3 (Homo sapiens, UniProt P41145, INS261[…]/L259S/S262L/V164K); assay type: cell-based; settings: for EC50: read-out: κLight EC50
T1 construct: TlcnC (telencephalin) tag (C); PRC tag (C); ER2 (ER export motif FCYENEV) tag (C); expressed in transfected cells; dissociated hippocampal neurons (AAV9-hSyn); mouse brain (AAV9-hSyn)
Target sequence in this assay (P41145 with tags, fused parts or gaps V164K/L259S/INS261[withheld]/S262L): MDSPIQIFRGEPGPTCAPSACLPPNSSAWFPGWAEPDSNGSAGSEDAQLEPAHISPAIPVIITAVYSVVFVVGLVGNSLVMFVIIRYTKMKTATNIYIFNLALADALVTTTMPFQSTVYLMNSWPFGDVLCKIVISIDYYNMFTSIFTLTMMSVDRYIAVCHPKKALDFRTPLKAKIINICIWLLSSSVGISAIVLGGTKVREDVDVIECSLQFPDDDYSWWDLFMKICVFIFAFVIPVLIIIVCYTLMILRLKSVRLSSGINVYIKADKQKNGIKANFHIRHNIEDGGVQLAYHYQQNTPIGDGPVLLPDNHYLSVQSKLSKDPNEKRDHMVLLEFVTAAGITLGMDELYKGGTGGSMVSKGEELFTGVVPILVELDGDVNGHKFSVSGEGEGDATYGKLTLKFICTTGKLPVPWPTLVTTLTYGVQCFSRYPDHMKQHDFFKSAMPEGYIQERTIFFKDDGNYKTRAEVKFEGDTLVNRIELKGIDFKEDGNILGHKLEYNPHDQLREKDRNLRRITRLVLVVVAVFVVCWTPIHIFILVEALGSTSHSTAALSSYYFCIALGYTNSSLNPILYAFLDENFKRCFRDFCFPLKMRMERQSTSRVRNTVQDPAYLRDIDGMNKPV

δLight [4] = settings: read-out: δLight EC50 in neurons; dissociated hippocampal neurons
κLight1.3a [5] = assay: in situ titration in dissociated hippocampal neurons expressing κLight1.3a; assay type: cell-based, human
κLight1.3 [6] = biological target: T1, κLight1.3; assay type: cell-based; settings: read-out: κLight1.3 EC50 in neurons; dissociated hippocampal neurons
κLight = biological target: T2, κLight (Homo sapiens, UniProt P41145, INS261[…]/L259S/S262L/V164K); assay: [3H]diprenorphine displacement binding, κLight cell membranes; settings: read-out: κLight IC50
T2 construct: TlcnC (telencephalin) tag (C); PRC tag (C); ER2 (ER export motif FCYENEV) tag (C); expressed in transfected cells; dissociated hippocampal neurons (AAV9-hSyn); mouse brain (AAV9-hSyn)

κLight1.3 [7] = biological target: T1, κLight1.3; assay type: cell-based
Target sequence in this assay (P41145 with tags, fused parts or gaps V164K/L259S/INS261[withheld]/S262L): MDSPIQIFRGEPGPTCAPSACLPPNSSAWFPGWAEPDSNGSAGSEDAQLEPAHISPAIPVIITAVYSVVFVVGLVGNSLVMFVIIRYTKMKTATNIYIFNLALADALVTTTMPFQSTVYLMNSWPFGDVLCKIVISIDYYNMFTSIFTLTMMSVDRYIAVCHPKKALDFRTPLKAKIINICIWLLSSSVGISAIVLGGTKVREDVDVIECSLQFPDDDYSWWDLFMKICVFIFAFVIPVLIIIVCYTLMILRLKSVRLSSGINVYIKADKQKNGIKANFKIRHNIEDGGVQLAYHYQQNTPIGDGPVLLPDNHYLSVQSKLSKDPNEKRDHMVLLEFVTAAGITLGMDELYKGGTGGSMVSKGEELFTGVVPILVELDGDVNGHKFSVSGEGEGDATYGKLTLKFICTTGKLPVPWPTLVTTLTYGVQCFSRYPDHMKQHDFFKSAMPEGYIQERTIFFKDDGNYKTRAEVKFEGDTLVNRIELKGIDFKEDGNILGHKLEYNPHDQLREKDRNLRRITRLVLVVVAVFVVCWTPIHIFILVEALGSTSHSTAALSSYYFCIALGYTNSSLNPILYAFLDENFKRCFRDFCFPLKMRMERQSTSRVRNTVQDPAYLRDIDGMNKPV

κLight1.3a [8] = assay: two-photon imaging of κLight1.3a response to electrical stimulation in hippocampal CA3 slices; set-up: species or system mouse; settings: antagonist 100 µM, n = 3 slices
δLight0 = biological target: T3, δLight0 (Homo sapiens, UniProt P41143, D128N/G248L/INS249[…]/V154K); assay: in vivo fiber photometry of control sensor δLight0 upon i.p. drug injection; set-up: species or system mouse; settings: 5 mg/kg SNC162, n = 4 animals
T3 construct: ER2 tag (ER export motif FCYENEV) (C); PRC (proximal restriction and clustering) tag, after a GS linker (C); expressed in transfected cells; host or cells: mouse brain neurons (ARC; NAc) transduced in vivo with AAV-hSyn-δLight0
Source text: (§1) We next determined if κLight and δLight can be activated by systemic administration of exogenous small-molecule drugs in vivo. We injected AAV9-hSyn encoding κLight1.3 or δLight, and κLight0 or δLight0 in the arcuate nucleus (ARC) of the hypothalamus, hippocampal CA3 region[43] and NAc[30], areas abundant in κOR and δOR. We next implanted fiber-optic ferrules above each injection site and recorded the fluorescence of κLight and δLight upon intraperitoneal (i.p.) injection of opioid receptor-selective ligands using fiber photometry (Fig. 4a and Extended Data Fig. 4h–j).
(§2) For fiber photometry studies, recordings were obtained throughout the entirety of drug injection, Pavlovian conditioning and head-fixed sessions as previously described. […] Laser intensity for the 470-nm- and 405-nm-wavelength bands were measured at the tip of the optic fiber and adjusted to 50 μW before each day of recording. κLight1.3 fluorescence traveled through the same optic fiber before being bandpass filtered (525 ± 25 nm, Doric, FMC4), transduced by a femtowatt silicon photoreceiver (Newport, 2151) and recorded by a real-time processor (TDT, RZ5P). […]
Custom MATLAB scripts were developed for analyzing fiber photometry data in the context of mouse behavior. […] After baseline correction, the photometry trace was z-scored relative to the mean and standard deviation of the session. […]

δLight [9] = biological target: T4, δLight (Homo sapiens, UniProt P41143, G248L/INS249[…]/V154K); assay type: in vivo, mouse
T4 construct: PRC tag (C); ER2 (ER export motif) tag (C); expressed in transfected cells; dissociated hippocampal neurons (AAV9-hSyn); mouse brain (AAV9-hSyn)
Source text: as §1
as §2, with “described. Before recording, an optic fiber was attached to the implanted fiber using a ferrule sleeve (Doric, ZR_2.5). Two LEDs were used to excite κLight1.3.” for “described.”
Custom MATLAB scripts were developed for analyzing fiber photometry data in the context of mouse behavior. […] After baseline correction, the photometry trace was z-scored relative to the mean and standard deviation of the session. The post-processed fiber photometry signal was analyzed in the context of animal behavior during Pavlovian conditioning and operant task performance. […] Peak, mean and minimum fluorescence was determined during predetermined time windows for the injection period (0–5 min), reward period (5–20 s), release period (0–20 s) or artifact period (0–20 s) subtracted from peak, mean or minimum fluorescence values in a baseline window (−5 to 0 s). […]

δLight [10] = settings: neuron cultures; 100 μM ME then 1 mM naloxone

T4 sequence (P41143 with tags, fused parts or gaps, stated change not applied): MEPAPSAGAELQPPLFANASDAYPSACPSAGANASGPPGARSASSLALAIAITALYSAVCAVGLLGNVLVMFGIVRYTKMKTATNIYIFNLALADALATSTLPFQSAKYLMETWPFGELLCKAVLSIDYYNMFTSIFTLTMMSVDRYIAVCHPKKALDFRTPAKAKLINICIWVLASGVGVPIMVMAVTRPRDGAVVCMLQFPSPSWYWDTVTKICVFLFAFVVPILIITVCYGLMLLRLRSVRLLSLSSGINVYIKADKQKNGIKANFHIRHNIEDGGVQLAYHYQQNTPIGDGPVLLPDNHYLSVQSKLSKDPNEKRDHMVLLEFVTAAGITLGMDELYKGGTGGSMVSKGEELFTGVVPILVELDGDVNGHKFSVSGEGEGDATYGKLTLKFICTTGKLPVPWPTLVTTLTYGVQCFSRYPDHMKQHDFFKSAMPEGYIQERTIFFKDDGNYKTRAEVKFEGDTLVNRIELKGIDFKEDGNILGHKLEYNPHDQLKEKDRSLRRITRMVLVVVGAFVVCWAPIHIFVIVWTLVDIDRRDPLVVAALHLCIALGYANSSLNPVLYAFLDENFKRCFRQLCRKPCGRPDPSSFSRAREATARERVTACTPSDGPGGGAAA
Chain of µLight (Homo sapiens, UniProt P35372, V175Q) (P35372 whole entry V175Q, looked up): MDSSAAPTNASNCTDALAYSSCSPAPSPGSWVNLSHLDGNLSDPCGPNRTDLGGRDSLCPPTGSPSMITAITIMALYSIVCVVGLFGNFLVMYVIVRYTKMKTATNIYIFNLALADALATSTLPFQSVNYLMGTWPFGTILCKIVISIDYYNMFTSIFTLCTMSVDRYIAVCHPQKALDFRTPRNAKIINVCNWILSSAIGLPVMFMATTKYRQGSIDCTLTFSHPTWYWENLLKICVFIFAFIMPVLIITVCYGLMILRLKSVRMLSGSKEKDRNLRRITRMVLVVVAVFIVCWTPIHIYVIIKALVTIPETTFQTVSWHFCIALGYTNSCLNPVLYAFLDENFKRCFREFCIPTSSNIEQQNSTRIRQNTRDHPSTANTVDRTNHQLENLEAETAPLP
Chain of µLight (Homo sapiens, UniProt P35372, INS270[…]/V175Q) (P35372 with tags, fused parts or gaps V175Q/INS270[withheld]): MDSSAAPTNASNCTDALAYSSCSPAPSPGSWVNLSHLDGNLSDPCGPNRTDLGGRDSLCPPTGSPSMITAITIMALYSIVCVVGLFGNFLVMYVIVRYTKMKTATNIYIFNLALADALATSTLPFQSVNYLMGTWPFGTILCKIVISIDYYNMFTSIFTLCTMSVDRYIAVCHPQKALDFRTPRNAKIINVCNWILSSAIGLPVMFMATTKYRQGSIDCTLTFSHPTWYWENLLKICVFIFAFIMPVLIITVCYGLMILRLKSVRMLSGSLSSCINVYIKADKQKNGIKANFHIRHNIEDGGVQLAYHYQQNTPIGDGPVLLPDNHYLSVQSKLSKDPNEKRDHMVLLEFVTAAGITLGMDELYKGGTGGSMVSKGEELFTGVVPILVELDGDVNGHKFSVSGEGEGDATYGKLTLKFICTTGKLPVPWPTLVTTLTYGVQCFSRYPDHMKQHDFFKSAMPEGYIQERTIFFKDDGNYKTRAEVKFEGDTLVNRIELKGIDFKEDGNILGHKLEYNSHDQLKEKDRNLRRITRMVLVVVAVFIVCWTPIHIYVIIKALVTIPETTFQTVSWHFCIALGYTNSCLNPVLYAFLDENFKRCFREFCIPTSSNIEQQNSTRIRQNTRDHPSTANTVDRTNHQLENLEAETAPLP
T3 sequence (P41143 with tags, fused parts or gaps, stated change not applied): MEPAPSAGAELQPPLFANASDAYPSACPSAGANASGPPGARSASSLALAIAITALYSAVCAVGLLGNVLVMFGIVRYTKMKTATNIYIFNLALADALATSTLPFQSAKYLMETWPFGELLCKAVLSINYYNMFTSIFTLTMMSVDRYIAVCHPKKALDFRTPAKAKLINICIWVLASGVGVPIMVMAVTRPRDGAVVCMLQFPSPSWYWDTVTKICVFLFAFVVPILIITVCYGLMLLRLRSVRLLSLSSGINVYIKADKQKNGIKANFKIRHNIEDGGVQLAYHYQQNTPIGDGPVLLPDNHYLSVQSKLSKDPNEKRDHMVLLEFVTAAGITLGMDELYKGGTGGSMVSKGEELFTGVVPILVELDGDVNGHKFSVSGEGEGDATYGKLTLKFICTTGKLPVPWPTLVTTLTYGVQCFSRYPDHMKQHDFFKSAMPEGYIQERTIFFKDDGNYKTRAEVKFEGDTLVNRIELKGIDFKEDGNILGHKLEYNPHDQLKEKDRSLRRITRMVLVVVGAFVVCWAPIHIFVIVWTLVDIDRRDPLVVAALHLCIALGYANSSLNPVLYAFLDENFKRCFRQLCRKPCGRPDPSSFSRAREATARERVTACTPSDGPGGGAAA

## C[C@@H](NC(=O)[C@@H](N)Cc1ccc(O)cc1)C(=O)NCC(=O)N(C)[C@@H](Cc1ccccc1)C(=O)NCCO [DAMGO]
µLight [1]
  μLight % bound at 10 μM: 79±3%
µLight [2]
  μLight ΔF/F max (%): 50.5±1.95%
κLight1.3 [3]
  Normalized ΔF/F of κLight1.3: 0.17 ± 0.03

## CC1(C)SSC(C)(C)[C@@H](NC(=O)[C@@H](N)Cc2ccc(O)cc2)C(=O)NCC(=O)N[C@@H](Cc2ccccc2)C(=O)N[C@H]1C(=O)O [DPDPE]
κLight1.3 [3]
  Normalized ΔF/F of κLight1.3: 0.19 ± 0.04
  κLight ΔF/F max (%): 20.5±1.67%

## CC(C)[C@H](NC(=O)[C@H](CC(=O)O)NC(=O)[C@H](Cc1ccccc1)NC(=O)[C@@H](C)NC(=O)[C@@H](N)Cc1ccc(O)cc1)C(=O)N[C@H](C(=O)NCC(N)=O)C(C)C [Deltorphin I]
κLight1.3 [3]
  Normalized ΔF/F of κLight1.3: 0.26 ± 0.02

## CC[C@H](C)[C@H](NC(=O)[C@H](CCCNC(=N)N)NC(=O)[C@H](CCCNC(=N)N)NC(=O)[C@H](CC(C)C)NC(=O)[C@H](Cc1ccccc1)NC(=O)CNC(=O)CNC(=O)[C@@H](N)Cc1ccc(O)cc1)C(=O)O [DynA8, dynorphin A1-8]
µLight [1]
  IC50: 48 ± 2 nM
  μLight % bound at 10 μM: 58±2%
κLight1.3 [3]
  Normalized ΔF/F of κLight1.3: 0.61 ± 0.04

## CC[C@H](C)[C@H](NC(=O)[C@H](CCCNC(=N)N)NC(=O)[C@H](CCCNC(=N)N)NC(=O)[C@H](CC(C)C)NC(=O)[C@H](Cc1ccccc1)NC(=O)CNC(=O)CNC(=O)[C@@H](N)Cc1ccc(O)cc1)C(=O)N[C@@H](CCCNC(=N)N)C(=O)N1CCC[C@H]1C(=O)N[C@@H](CCCCN)C(=O)N[C@@H](CC(C)C)C(=O)N[C@@H](CCCCN)C(=O)O [DynA13, dynorphin A1-13]
δLight [4]
  EC50: 562 nM
κLight1.3a [5]
  EC50: 35.4 nM
κLight1.3 [3]
  EC50: 0.0898 nM
κLight1.3 [6]
  EC50: 19.2 nM

## CC(C)C[C@H](NC(=O)[C@H](Cc1ccccc1)NC(=O)CNC(=O)CNC(=O)[C@@H](N)Cc1ccc(O)cc1)C(=O)O [LE, Leu-enkephalin]
κLight1.3 [3]
  Normalized ΔF/F of κLight1.3: 0.24 ± 0.02

## CSCC[C@H](NC(=O)[C@H](Cc1ccccc1)NC(=O)CNC(=O)CNC(=O)[C@@H](N)Cc1ccc(O)cc1)C(=O)O [ME, met-enkephalin]
κLight
  IC50: 130 ± 3 nM
κLight1.3a [5]
  EC50: 9650 nM
κLight1.3 [3]
  Normalized ΔF/F of κLight1.3: 0.18 ± 0.005
  EC50: 6640 nM
κLight1.3 [6]
  EC50: 52100 nM

## CN(C(=O)/C=C/c1ccoc1)[C@@H]1CC[C@@]2(O)[C@H]3Cc4ccc(O)c5c4[C@@]2(CCN3CC2CC2)[C@H]1O5 [Nalfurafine, nalfurafine]
κLight1.3 [3]
  Normalized ΔF/F of κLight1.3: 1.91 ± 0.09

## Oc1ccc2c3c1O[C@H]1c4[nH]c5c(c4C[C@@]4(O)[C@@H](C2)N(CC2CC2)CC[C@]314)C[C@@]1(O)[C@H]2Cc3ccc(O)c4c3[C@@]1(CCN2CC1CC1)[C@H]5O4 [Nor-BNI, nor-binaltorphimine]
κLight1.3 [7]
  pA2 at κLight1.3: 8.28
κLight1.3a [8]
  peak ΔF/F of κLight1.3a to 15 electrical stimuli in presence of antagonist: 1.57% ± 1.2

## COc1ccc2c3c1O[C@H]1C(=O)CC[C@@]4(O)[C@@H](C2)N(C)CC[C@]314 [Oxycodone, oxycodone]
µLight [1]
  μLight % bound at 10 μM: 32±3%
µLight [2]
  µLight fluorescence response: suppressed
  μLight ΔF/F max (%): -12.8±2.78%
κLight1.3 [3]
  Normalized ΔF/F of κLight1.3: 0.16 ± 0.04

## C=CCN1C[C@H](C)N([C@@H](c2ccccc2)c2ccc(C(=O)N(CC)CC)cc2)C[C@H]1C [SNC162]
δLight0; ARC (panel j)
  peak z-score of δLight0: 0.77 ± 0.5%
δLight0; ARC as printed (panel l)
  peak z-score of δLight0: −0.61 ± 0.4%
µLight [2]
  μLight ΔF/F max (%): 2.9±1.69%
  EC50: 87.3 nM
δLight [9]; ARC, SNC162 2.25 mg per kg
  z-score peak of δLight: 2.4 ± 1.0
δLight [9]; ARC, SNC162 5 mg per kg
  z-score peak of δLight: 7.28 ± 2.4
δLight [9]; NAc, SNC162 5 mg per kg
  z-score peak of δLight: 7.45 ± 2.20
κLight1.3 [3]
  Normalized ΔF/F of κLight1.3: 0.009 ± 0.02
  κLight ΔF/F max (%): 12.2±2.39%
  EC50: 8280 nM

## C=CCN1CC[C@]23c4c5ccc(O)c4O[C@H]2C(=O)CC[C@@]3(O)[C@H]1C5 [naloxone]
δLight [10]
  δLight ΔF/F, + antagonist response: 1.82 ± 2.4%

## CC[C@H](C)[C@H](NC(=O)[C@H](C)NC(=O)[C@H](CC(N)=O)NC(=O)[C@H](CCCCN)NC(=O)[C@H](Cc1ccccc1)NC(=O)[C@H](CC(C)C)NC(=O)[C@@H](NC(=O)[C@@H](NC(=O)[C@H](CC(C)C)NC(=O)[C@@H]1CCCN1C(=O)[C@@H](NC(=O)[C@H](CCC(N)=O)NC(=O)[C@H](CO)NC(=O)[C@H](CCCCN)NC(=O)[C@H](CCC(=O)O)NC(=O)[C@H](CO)NC(=O)[C@@H](NC(=O)[C@H](CCSC)NC(=O)[C@H](Cc1ccccc1)NC(=O)CNC(=O)CNC(=O)[C@@H](N)Cc1ccc(O)cc1)[C@@H](C)O)[C@@H](C)O)C(C)C)[C@@H](C)O)C(=O)N[C@H](C(=O)N[C@@H](CCCCN)C(=O)N[C@@H](CC(N)=O)C(=O)N[C@@H](C)C(=O)N[C@@H](Cc1ccc(O)cc1)C(=O)N[C@@H](CCCCN)C(=O)N[C@@H](CCCCN)C(=O)NCC(=O)N[C@@H](CCC(=O)O)C(=O)O)[C@@H](C)CC [β-endorphin]
µLight [1]
  μLight % bound at 10 μM: 46±3%
δLight [4]
  EC50: 217 nM
κLight1.3a [5]
  EC50: 2710 nM
κLight1.3 [3]
  Normalized ΔF/F of κLight1.3: 0.21 ± 0.01

## ICI 174864
κLight1.3 [7]
  antagonism of κLight activation by DynA13: did not observe apparent antagonism
κLight1.3a [8]
  peak ΔF/F of κLight1.3a to 15 electrical stimuli in presence of antagonist: 6.44% ± 0.3

## YGGFLRKYP [β-neoendorphin]
κLight
  IC50: 13 ± 2 nM
µLight [2]
  EC50: 6310 nM
κLight1.3 [3]
  Normalized ΔF/F of κLight1.3: 0.26 ± 0.03
  EC50: 25.9 nM

## YGGFLRRQF [DynB9, Dynorphin B9]
µLight [2]
  EC50: 3760 nM
κLight1.3 [3]
  Normalized ΔF/F of κLight1.3: 0.97 ± 0.03
  EC50: 10 nM

## YGGFMRRVGRPEWWMDYQ [BAM18]
µLight [1]; read-out: μLight IC50
  IC50: 14 ± 2 nM
κLight
  IC50: 243 ± 2 nM
µLight [2]
  EC50: 186 nM
κLight1.3 [3]
  Normalized ΔF/F of κLight1.3: 0.48 ± 0.03
  EC50: 35.6 nM

## YGGFMRRVGRPEWWMDYQKRYGGFL [Peptide E]
µLight [1]
  μLight % bound at 10 μM: 65±2%
µLight [1]; read-out: μLight IC50
  IC50: 154 ± 2 nM
κLight
  IC50: 252 ± 2 nM
